Experimental data published in US8183216B2, “Nucleoside derivatives as inhibitors of viral polymerases” (Istituto Di Ricerche Di Biologia Molecolare P. Angeletti …, priority 2007, dated 2012).

Each compound was assayed against T1, HCV NS5B RNA-dependent RNA polymerase (Hepatitis C virus genotype 1b, UniProt P26663) (assay: Assay for inhibition of HCV NS5B polymerase (heteromeric RNA template, 3H-UTP incorporation)). Conditions: activity ranges.
T1 construct: RNA-dependent RNA polymerase (NS5B) of the hepatitis C virus (HCV)
T1 sequence (P26663 2420-2955): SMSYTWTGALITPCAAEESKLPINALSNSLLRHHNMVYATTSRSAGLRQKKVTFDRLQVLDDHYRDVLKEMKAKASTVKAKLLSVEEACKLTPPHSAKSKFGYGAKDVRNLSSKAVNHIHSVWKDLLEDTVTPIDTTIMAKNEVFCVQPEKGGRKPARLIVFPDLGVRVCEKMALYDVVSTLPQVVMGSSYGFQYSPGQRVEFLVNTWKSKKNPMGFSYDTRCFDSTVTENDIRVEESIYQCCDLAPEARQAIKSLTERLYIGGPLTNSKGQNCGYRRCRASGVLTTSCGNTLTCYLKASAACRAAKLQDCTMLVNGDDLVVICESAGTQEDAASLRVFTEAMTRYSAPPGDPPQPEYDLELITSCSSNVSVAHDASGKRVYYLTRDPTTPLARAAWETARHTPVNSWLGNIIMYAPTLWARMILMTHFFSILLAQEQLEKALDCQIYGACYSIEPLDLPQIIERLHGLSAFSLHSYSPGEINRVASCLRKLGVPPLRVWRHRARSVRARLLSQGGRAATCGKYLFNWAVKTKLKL
Assay type: biochemical
Procedure: The effectiveness of the compounds of the present invention as inhibitors of HCV NS5B RNA-dependent RNA polymerase (RdRp) was measured in the following assay.
A. Assay for Inhibition of HCV NS5B Polymerase:
This assay was used to measure the ability of the nucleoside derivatives of the present invention to inhibit the enzymatic activity of the RNA-dependent RNA polymerase (NS5B) of the hepatitis C virus (HCV) on a heteromeric RNA template.
Assay Buffer Conditions: (52.5 μL-total/reaction) • 20 mM Tris, pH 7.5 • 45 mM KCl • 2 mM MgCl2 • 0.01% Triton X-100 • 1 μg BSA, DNase Free • 1 mM DTT • 2 nM DC55-1b.BK or 10 nM DC55-2b.2 • 20 nM heterogeneous template dCoh • UTP 1 uM • ATP 1 uM • CTP 1 uM • GTP 1 uM • 3H-UTP 1,000,000 cpm • 2.5 μl reaction inhibitor compound in H2O
The compounds were tested at various concentrations up to 100 μM final concentration. Nucleoside derivatives were pipetted into wells of a 96-well plate. The enzyme diluted in the reaction buffer was pipetted into the wells and incubated at room temperature for 10 minutes; then the template dCoh was added and incubated for 10 minutes at room temperature. The reaction was initiated by addition of a mixture of nucleotide triphosphates (NTP's), including the radiolabeled UTP, and allowed to proceed at room temperature for 2 hours. Blank samples were done omitting the dCoh template. The reaction was quenched by addition of 50 ul TCA 20% (trichloroacetic acid)/NaPPi 20 mM and the plates were put in ice for 5 minutes. Then, the mixtures were filtered onto Unifilter GF/B 96-well plates (PerkinElmer), washed with TCA 2.5%. P 50 ul/well of scintillator solution (Microscint 20, PerkinElmer) were added and the plates were counted in a scintillator counter.
The percentage of inhibition was calculated according to the following equation: % Inhibition=[1−(cpm in test reaction−cpm in blank)/(cpm in control reaction−cpm in blank)]×100.
Representative compounds were tested in the HCV NS5B polymerase assay and results are reported as IC50 activity ranges in Table B

Row | IC50 [µM] | Structure (SMILES)
1 | < 1 | C[C@@]1(O)[C@H](O)[C@@H](COP(=O)(O)OP(=O)(O)OP(=O)(O)O)O[C@H]1n1cc2c3c(ncnc31)NC(=O)c1ccccc1-2 [Compound 5, 2-[5-O-(hydroxy{[hydroxy(phosphonooxy)phosphoryl]oxy}phosphoryl)-2-C-methyl-beta-D-ribofuranosyl]-2,6-dihydro-7H-2,3,5,6-tetraazadibenzo[cd,h]azulen-7-one]
2 | 1 to 30 | C[C@@]1(O)[C@H](O)[C@@H](COP(=O)(O)OP(=O)(O)OP(=O)(O)O)O[C@H]1n1cc2c3c(ncnc31)NCc1ccccc1-2 [Compound 6, 2-[5-O-(hydroxy{[hydroxy(phosphonooxy)phosphoryl]oxy}phosphoryl)-2-C-methyl-beta-D-ribofuranosyl]-6,7-dihydro-2H-2,3,5,6-tetraazadibenzo[cd,h]azulene]
3 | 1 to 30 | C[C@@]1(O)[C@H](O)[C@@H](COP(=O)(O)OP(=O)(O)OP(=O)(O)O)O[C@H]1n1cc2c3c(ncnc31)NCc1sccc1-2 [Compound 7, 2-[5-O-(hydroxy{[hydroxy(phosphonooxy)phosphoryl]oxy}phosphoryl)-2-C-methyl-beta-D-ribofuranosyl]-6,7-dihydro-2H-8-thia-2,3,5,6-tetraazabenzo[cd]cyclopenta[h]azulene]
4 | < 1 | C[C@@]1(O)[C@H](O)[C@@H](COP(=O)(O)OP(=O)(O)OP(=O)(O)O)O[C@H]1n1cc2c3c(ncnc31)NC(=O)c1sccc1-2 [Compound 8, 2-[5-O-(hydroxy{[hydroxy(phosphonooxy)phosphoryl]oxy}phosphoryl)-2-C-methyl-beta-D-ribofuranosyl]-2,6-dihydro-7H-8-thia-2,3,5,6-tetraazabenzo[cd]cyclopenta[h]azulen-7-one]

What follows are compounds tested on HuH-7 cells containing a subgenomic HCV Replicon (assay: Assay for inhibition of HCV RNA replication (subgenomic replicon, in situ RNase protection SPA)). Conditions: Hepatitis C virus; HCV replication assay in HuH-7 replicon cells, activity ranges.
Assay type: cell-based
Procedure: B. Assay for Inhibition of HCV RNA Replication:
The compounds of the present invention were also evaluated for their ability to affect the replication of Hepatitis C Virus RNA in cultured hepatoma (HuH-7) cells containing a subgenomic HCV Replicon. The details of the assay are described below. This Replicon assay is a modification of that described in V. Lohmann, F. Korner, J-O. Koch, U. Herian, L. Theilmann, and R. Bartenschlager, “Replication of a Sub-genomic Hepatitis C Virus RNAs in a Hepatoma Cell Line,” Science 285:110 (1999).
The assay was an in situ Ribonuclease protection, Scintillation Proximity based-plate assay (SPA). 10,000-40,000 cells were plated in 100-200 μL of media containing 0.8 mg/mL G418 in 96-well cytostar plates (Amersham). Compounds were added to cells at various concentrations up to 100 μM in 1% DMSO at time 0 to 18 h and then cultured for 24-96 h. Cells were fixed (20 min, 10% formalin), permeabilized (20 min, 0.25% Triton X-100/PBS) and hybridized (overnight, 50° C.) with a single-stranded ^33P RNA probe complementary to the (+) strand NS5B (or other genes) contained in the RNA viral genome. Cells were washed, treated with RNAse, washed, heated to 65° C. and counted in a Top-Count Inhibition of replication was read as a decrease in counts per minute (cpm).
Human HuH-7 hepatoma cells, which were selected to contain a subgenomic replicon, carry a cytoplasmic RNA consisting of an HCV 5′ non-translated region (NTR), a neomycin selectable marker, an EMCV IRES (internal ribosome entry site), and HCV non-structural proteins NS3 through NS5B, followed by the 3′ NTR.
Representative compounds were tested in the HCV replication assay and results are reported as EC50 activity ranges in Table C

Row | Structure (SMILES) | EC50 [µM]
5 | CC1(O)C(n2cc3c4c(ncnc42)NC(=O)c2sccc2-3)O[C@H](CO)[C@H]1O (single isomer, unassigned) [Compound 3, 2-(2-C-methyl-beta-D-ribofuranosyl)-2,6-dihydro-7H-8-thia-2,3,5,6-tetraazabenzo[CD]cyclopenta[H]azulen-7-one] | < 30
6 | CC1(O)C(n2cc3c4c(ncnc42)NCc2sccc2-3)O[C@H](CO)[C@H]1O (single isomer, unassigned) [Compound 4, 2-(2-C-methyl-beta-D-ribofuranosyl)-6,7-dihydro-2H-8-thia-2,3,5,6-tetraazabenzo[CD]cyclopenta[H]azulene] | < 30
7 | C[C@@]1(O)[C@H](O)[C@@H](CO)O[C@H]1n1cc2c3c(ncnc31)NC(=O)c1ccccc1-2 [Compound 1, 2-(2-C-methyl-beta-D-ribofuranosyl)-2,6-dihydro-7H-2,3,5,6-tetraazadibenzo[C,D,H]azulen-7-one] | < 30
8 | C[C@@]1(O)[C@H](O)[C@@H](CO)O[C@H]1n1cc2c3c(ncnc31)NCc1ccccc1-2 [Compound 2, 2-(2-C-methyl-beta-D-ribofuranosyl)-6,7-dihydro-2H-2,3,5,6-tetraazadibenzo[cd,h]azulene] | 30 to 50
